Measurements taken from US10882837B2, “Amide compounds and use thereof” (ALPHALA CO., LTD., priority 2017, dated 2021).

How the values were obtained:
glucagon receptor (GCGR) = target: T1, glucagon receptor (GCGR) (Homo sapiens, UniProt P47871); assay: Glucagon cAMP inhibition assay (Cisbio cAMP Dynamic 2 HTRF); type: cell-based; settings: GCGR overexpressed CHO-K1 cells or human primary hepatocytes (not specified); glucagon at EC50
T1 construct: expressed in transfected cells; host or cells: CHO-K1
T1 sequence (P47871 26-477, species assumed): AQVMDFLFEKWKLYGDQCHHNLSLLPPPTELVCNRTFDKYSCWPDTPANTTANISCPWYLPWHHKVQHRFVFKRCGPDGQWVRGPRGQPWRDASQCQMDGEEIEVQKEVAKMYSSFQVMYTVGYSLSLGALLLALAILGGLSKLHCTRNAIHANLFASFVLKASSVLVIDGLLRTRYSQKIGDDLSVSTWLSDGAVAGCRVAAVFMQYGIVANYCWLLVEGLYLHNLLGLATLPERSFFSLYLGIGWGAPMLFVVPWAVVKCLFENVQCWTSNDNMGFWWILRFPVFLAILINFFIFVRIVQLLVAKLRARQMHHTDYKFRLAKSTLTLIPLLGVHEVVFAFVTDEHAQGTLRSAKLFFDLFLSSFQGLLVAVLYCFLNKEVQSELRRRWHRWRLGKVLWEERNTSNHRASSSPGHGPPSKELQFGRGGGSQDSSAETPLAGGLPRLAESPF
Outline: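 GCGR-overexpressing CHO-K1 cells or human primary hepatocytes in HBSS with 0.1% BSA and 800 nM IBMX, pre-incubated 30 min with compound (1% DMSO final), then stimulated 30 min at room temperature with glucagon at its EC50. cAMP measured by HTRF after 60 min lysis; IC50 from non-linear regression.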

GCGR = GCGR (Homo sapiens, UniProt P47871); assay: I125-glucagon binding assay (competition, GCGR membrane fractions); design: expressed in transfected cells; host or cells: CHO-K1; settings: competition with I125-glucagon 0.0625 nM; membrane fractions from GCGR overexpressed CHO-K1 cells
Sequence of GCGR (P47871 26-477, species assumed): as above
Outline: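 Membranes from CHO-K1 cells overexpressing GCGR (7.5 µg/well) were preincubated 5 min with serially diluted compound in 50 mM Tris pH 7.4, 0.5% BSA. I125-glucagon was then added at 0.0625 nM final and incubated 30 min at 25 °C. After filtration, bound radioactivity was counted and IC50 derived by non-linear regression.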

IC50 (glucagon receptor (GCGR)) [nM] | IC50 (GCGR) [nM] | SMILES
118 | > 30000 | CCCC[C@H](Nc1ccc(C(=O)NCCC(=O)OCC)cc1)c1ccc(-c2noc(C(F)(F)F)n2)cc1 [Compound 2-45, ethyl (S)-3-(4-((1-(4-(5-(trifluoromethyl)-1,2,4-oxadiazol-3-yl)phenyl)pentyl)amino)benzamido)propanoate]
2880 | > 30000 | CCCC[C@@H](Nc1ccc(C(=O)NCCC(=O)OCC)cc1)c1ccc(-c2noc(C(F)(F)F)n2)cc1 [Compound 2-46, ethyl (R)-3-(4-((1-(4-(5-(trifluoromethyl)-1,2,4-oxadiazol-3-yl)phenyl)pentyl)amino)benzamido)propanoate]
428 | 254 | CCCC[C@H](Nc1ccc(C(=O)NCCC(=O)O)cc1)c1ccc(-c2noc(C(F)(F)F)n2)cc1 [Compound 2-47, (S)-3-(4-((1-(4-(5-(trifluoromethyl)-1,2,4-oxadiazol-3-yl)phenyl)pentyl)amino)benzamido)propanoic acid]
1570 | 1180 | CCCC[C@@H](Nc1ccc(C(=O)NCCC(=O)O)cc1)c1ccc(-c2noc(C(F)(F)F)n2)cc1 [Compound 2-48, (R)-3-(4-((1-(4-(5-(trifluoromethyl)-1,2,4-oxadiazol-3-yl)phenyl)pentyl)amino)benzamido)propanoic acid]
55.8 | 285 | COC(=O)CCNC(=O)c1ccc(N[C@H](c2ccc(-c3noc(-c4ccccc4)n3)cc2)C(C)C)cc1 [Compound 2-49, methyl (S)-3-(4-((2-methyl-1-(4-(5-phenyl-1,2,4-oxadiazol-3-yl)phenyl)propyl)amino)benzamido)propanoate]
1740 | 25 | CCCCC(Nc1ccc(-c2nnc(-c3ccccc3)o2)cc1)c1ccc(C(=O)NCCC(=O)O)cc1 (centres unmarked) [Compound 3-1, 3-(4-(1-((4-(5-phenyl-1,3,4-oxadiazol-2-yl)phenyl)amino)pentyl)benzamido)propanoic acid]
2900 | 17 | CC(C)C(Nc1ccc(-c2nnc(-c3ccccc3)o2)cc1)c1ccc(C(=O)NCCC(=O)O)cc1 (centres unmarked) [Compound 3-2, 3-(4-(2-methyl-1-((4-(5-phenyl-1,3,4-oxadiazol-2-yl)phenyl)amino)propyl)benzamido)propanoic acid]
933 | 1320 | CCCCC(Nc1ccc(-c2nnc(-c3ccccc3)o2)cc1)c1ccc(C(=O)NCCC(=O)OCC)cc1 (centres unmarked) [Compound 3-3, ethyl 3-(4-(1-((4-(5-phenyl-1,3,4-oxadiazol-2-yl)phenyl)amino)pentyl)benzamido)propanoate]
1230 | 2790 | CCOC(=O)CCNC(=O)c1ccc(C(Nc2ccc(-c3nnc(-c4ccccc4)o3)cc2)C(C)C)cc1 (centres unmarked) [Compound 3-4]
311 | 963 | CCOC(=O)CCNC(=O)c1ccc(C(Nc2ccc(-c3nnc(-c4ccccc4)o3)cc2)C(C)CC)cc1 (centres unmarked) [Compound 3-5, ethyl 3-(4-(2-methyl-1-((4-(5-phenyl-1,3,4-oxadiazol-2-yl)phenyl)amino)butyl)benzamido)propanoate]
650 | 58 | CCC(C)C(Nc1ccc(-c2nnc(-c3ccccc3)o2)cc1)c1ccc(C(=O)NCCC(=O)O)cc1 (centres unmarked) [Compound 3-6, 3-(4-(2-methyl-1-((4-(5-phenyl-1,3,4-oxadiazol-2-yl)phenyl)amino)butyl)benzamido)propanoic acid]
159 | 246 | CCOC(=O)CCNC(=O)c1ccc(C(Nc2ccc(-c3nnc(-c4ccc(F)cc4)o3)cc2)C(C)CC)cc1 (centres unmarked) [Compound 3-7, ethyl 3-(4-(1-((4-(5-(4-fluorophenyl)-1,3,4-oxadiazol-2-yl)phenyl)amino)-2-methylbutyl)benzamido)propanoate]
1030 | 74 | CCC(C)C(Nc1ccc(-c2nnc(-c3ccc(F)cc3)o2)cc1)c1ccc(C(=O)NCCC(=O)O)cc1 (centres unmarked) [Compound 3-8, 3-(4-(1-((4-(5-(4-fluorophenyl)-1,3,4-oxadiazol-2-yl)phenyl)amino)-2-methylbutyl)benzamido)propanoic acid]
442 | > 30000 | CCOC(=O)CCNC(=O)c1ccc(C(Nc2ccc(-c3nnc(-c4ccc(F)cc4)o3)cc2)C(C)C)cc1 (centres unmarked) [Compound 3-9, ethyl 3-(4-(1-((4-(5-(4-fluorophenyl)-1,3,4-oxadiazol-2-yl)phenyl)amino)-2-methylpropyl)benzamido)propanoate]
4500 | 143 | CC(C)C(Nc1ccc(-c2nnc(-c3ccc(F)cc3)o2)cc1)c1ccc(C(=O)NCCC(=O)O)cc1 (centres unmarked) [Compound 3-10, 3-(4-(1-((4-(5-(4-fluorophenyl)-1,3,4-oxadiazol-2-yl)phenyl)amino)-2-methylpropyl)benzamido)propanoic acid]
717 | 318 | CC(C)C(Nc1ccc(-c2noc(-c3ccccc3)n2)cc1)c1ccc(C(=O)NCCC(=O)O)cc1 (centres unmarked) [Compound 3-11, 3-(4-(2-methyl-1-((4-(5-phenyl-1,2,4-oxadiazol-3-yl)phenyl)amino)propyl)benzamido)propanoic acid]

IC50 (glucagon receptor (GCGR)) [nM] | IC50 (GCGR) [nM] | SMILES
277 | > 30000 | CCOC(=O)CCNC(=O)c1ccc([C@@H](Nc2ccc(-c3nnc(-c4ccccc4)o3)cc2)C(C)C)cc1 [Compound 3-12, (S)-ethyl 3-(4-(2-methyl-1-(4-(5-phenyl-1,3,4-oxadiazol-2-yl)phenylamino)propyl)benzamido)propanoate]
207 | > 30000 | CCOC(=O)CCNC(=O)c1ccc([C@H](Nc2ccc(-c3nnc(-c4ccccc4)o3)cc2)C(C)C)cc1 [Compound 3-13, (R)-ethyl 3-(4-(2-methyl-1-(4-(5-phenyl-1,3,4-oxadiazol-2-yl)phenylamino)propyl)benzamido)propanoate]
1780 | 957 | CC(C)[C@H](Nc1ccc(-c2nnc(-c3ccccc3)o2)cc1)c1ccc(C(=O)NCCC(=O)O)cc1 [Compound 3-14, (S)-3-(4-(2-methyl-1-(4-(5-phenyl-1,3,4-oxadiazol-2-yl)phenylamino)propyl)benzamido)propanoic acid]
632 | 21 | CC(C)[C@@H](Nc1ccc(-c2nnc(-c3ccccc3)o2)cc1)c1ccc(C(=O)NCCC(=O)O)cc1 [Compound 3-15, (R)-3-(4-(2-methyl-1-(4-(5-phenyl-1,3,4-oxadiazol-2-yl)phenylamino)propyl)benzamido)propanoic acid]
95.7 | 968 | CCOC(=O)CCNC(=O)c1ccc(NC(c2ccc(-c3nc4ccccc4o3)cc2)C(C)C)cc1 (centres unmarked) [Compound 4-1, ethyl 3-(4-((1-(4-(benzo[d]oxazol-2-yl)phenyl)-2-methylpropyl)amino)benzamido)propanoate]
119 | 799 | CCCCC(Nc1ccc(C(=O)NCCC(=O)OCC)cc1)c1ccc(-c2nc3ccccc3o2)cc1 (centres unmarked) [Compound 4-2, ethyl 3-(4-((1-(4-(benzo[d]oxazol-2-yl)phenyl)pentyl)amino)benzamido)propanoate]
2220 | 34 | CC(C)C(Nc1ccc(C(=O)NCCC(=O)O)cc1)c1ccc(-c2nc3ccccc3o2)cc1 (centres unmarked) [Compound 4-3, 3-(4-((1-(4-(benzo[d]oxazol-2-yl)phenyl)-2-methylpropyl)amino)benzamido)propanoic acid]
1080 | 101 | CCCCC(Nc1ccc(C(=O)NCCC(=O)O)cc1)c1ccc(-c2nc3ccccc3o2)cc1 (centres unmarked) [Compound 4-4, 3-(4-((1-(4-(benzo[d]oxazol-2-yl)phenyl)pentyl)amino)benzamido)propanoic acid]
26.5 | 714 | CCOC(=O)CCNC(=O)c1ccc(N[C@H](c2ccc(-c3nc4ccccc4o3)cc2)C(C)C)cc1 [Compound 4-5, ethyl (S)-3-(4-((1-(4-(benzo[d]oxazol-2-yl)phenyl)-2-methylpropyl)amino)benzamido)propanoate]
124 | > 3000 | CCOC(=O)CCNC(=O)c1ccc(N[C@@H](c2ccc(-c3nc4ccccc4o3)cc2)C(C)C)cc1 [Compound 4-6, ethyl (R)-3-(4-((1-(4-(benzo[d]oxazol-2-yl)phenyl)-2-methylpropyl)amino)benzamido)propanoate]
651 | 20 | CC(C)[C@H](Nc1ccc(C(=O)NCCC(=O)O)cc1)c1ccc(-c2nc3ccccc3o2)cc1 [Compound 4-7, (S)-3-(4-((1-(4-(benzo[d]oxazol-2-yl)phenyl)-2-methylpropyl)amino)benzamido)propanoic acid]
1080 | 372 | CC(C)[C@@H](Nc1ccc(C(=O)NCCC(=O)O)cc1)c1ccc(-c2nc3ccccc3o2)cc1 [Compound 4-8, (R)-3-(4-((1-(4-(benzo[d]oxazol-2-yl)phenyl)-2-methylpropyl)amino)benzamido)propanoic acid]
186 | 602 | CCCC[C@@H](Nc1ccc(C(=O)NCCC(=O)OCC)cc1)c1ccc(-c2nc3ccccc3o2)cc1 [Compound 4-9, ethyl (R)-3-(4-((1-(4-(benzo[d]oxazol-2-yl)phenyl)pentyl)amino)benzamido)propanoate]
1500 | 150 | CCCC[C@@H](Nc1ccc(C(=O)NCCC(=O)O)cc1)c1ccc(-c2nc3ccccc3o2)cc1 [Compound 4-10]
237 | 755 | CCOC(=O)CCNC(=O)c1ccc(N[C@@H](c2ccc(-c3nc4ccccc4o3)cc2)C2CCCC2)cc1 [Compound 4-11, ethyl (R)-3-(4-(((4-(benzo[d]oxazol-2-yl)phenyl)(cyclopentyl)methyl)amino)benzamido)propanoate]
